Measurements reported in patent publication US9995731B2, “Construction of mitochondrial UQCRB mutant expressing cells and utilization of the cells for UQCRB assay system thereof” (INDUSTRY-ACADEMIC COOPERATION FOUNDATION, YONSEI UNIVERSITY, priority 2014, dated 2018).

Legend:
Type in all cases: cell-based, human
[1] = system: UQCRB mutant stable cell line MT1; experiment: Cell proliferation assay (MTT colorimetric), UQCRB mutant stable cell line MT1; settings: MT1 cells, terpestacin 50 μM, with or without terpestacin for 3 days
Description: (§1) FIG. 4A-4F Pro-angiogenic activity of UQCRB mutant stable cell lines and its regulation by UQCRB inhibitors. (4A) Pro-angiogenic activity of a UQCRB mutant through conditioned media (CM)-induced invasion of HUVECs. (4B) Effect of a UQCRB mutation on cell migration; black lines indicate the edge of the gap. (4C) Optical density levels of the colony formation assay by using UQCRB mutant stable cell lines or controls. (4D, 4E) Growth of the UQCRB mutant stable cell lines regulated by the UQCRB inhibitors terpestacin (T) and A1938 (A). Cells were treated with terpestacin (50 μM) or A1938 (10 μM) in a time-dependent manner. Cell growth was measured by the MTT colorimetric assay. (4F) Suppression of elevated mROS by terpestacin in UQCRB MT1 cells. mROS were measured using MitoSOX™. Terpestacin (20 μM) was applied to UQCRB MT1 cells for 1 h; scale bars indicate 20 μm. […]
(§2) Control and mutant stable cell lines were seeded onto 96-well plates and incubated for 24-72 h. Proliferation of the cells was measured using a 3-(4,5-dimethylthiazol-2-yl)-2,5-diphenyltetrazolium bromide (MTT; Sigma-Aldrich, Saint Louis, Mo.) colorimetric assay.
(§3) Since UQCRB is a molecular target of the natural compound terpestacin [6], we examined the effect of terpestacin on UQCRB mutant stable cell lines. To test whether terpestacin affects MT1 and MT2, cell growth was measured with or without terpestacin for 3 days. […]

[2] = system: UQCRB mutant stable cell line MT2; experiment: Cell proliferation assay (MTT colorimetric), UQCRB mutant stable cell line MT2; settings: MT2 cells, terpestacin 50 μM, with or without terpestacin for 3 days
Description: as §1, §2, §3

Control (HEK293) cells = experiment: Cell proliferation assay (MTT colorimetric), control cells; settings: terpestacin 50 μM, 3 days
Description: as §1, §2, §3

UQCRB MT1 cells = experiment: Measurement of mROS levels with MitoSOX in UQCRB MT1 cells; settings: terpestacin 20 μM for 1 h
Description: as §1, with “MitoSOX™.” for “MitoSOX™. Terpestacin (20 μM) was applied to UQCRB MT1 cells for 1 h; scale bars indicate 20 μm.”
mROS levels were assessed by the red fluorescence mitochondrial superoxide indicator MitoSOX™ (Invitrogen, Grand Island, N.Y.). […] Results of MitoSOX™ and Hoechst staining were analyzed under a confocal microscope (Zeiss LSM 710; Carl Zeiss Microlmaging, Thornwood, N.Y.), and the fluorescence intensity of MitoSOX™ was measured by ImageJ.
as §3

`C/C1=C\C[C@]2(C)C(=O)C(O)=C([C@H](C)CO)[C@H]2C/C=C(\C)[C@@H](O)CC/C(C)=C/CC1` [terpestacin] was tested, and the “effect on proliferation (cell growth, MTT)” value (shortened to “effect on proliferation”) [1] was “remarkably inhibited proliferation”, the “effect on proliferation” value [2] was “remarkably inhibited proliferation” and the “effect on proliferation” value (Control (HEK293) cells) was “did not affect the proliferation”. For the same compound, the “effect on elevated mROS (MitoSOX fluorescence)” value (UQCRB MT1 cells) was “attenuated mROS induction in MT1 to a basal level”.
